{
  "source": "patent US20250345383A1",
  "about": "“INTRANASAL ADMINISTRATION OF POLYSULFIDE” (The General Hospital Corporation, priority 2022, published 2025)",
  "key": {"[1]": {"tested_on": "primary cortical neurons", "experiment": "Cell viability after oxygen and glucose deprivation/reoxygenation (OGD/R), primary cortical neurons", "assay_type": "cell-based, mouse", "conditions": "GSSSG at 30 μM, GSH at 60 μM, GSSG at 30 μM; vs vehicle-only treated cells", "protocol": "Primary cortical neurons were isolated from the cerebral cortices of C57BL/6J mice of both sexes at embryonic day 15, as previously described 39. Primary cortical neurons were maintained at 37° C. in a humidified tissue culture chamber with 5% CO2 and cells were used on day 11 after harvest. […] After reoxygenation, cell viability and cell injury were assessed using crystal violet and lactate dehydrogenase (LDH) assays, as previously described^39."}, "[2]": {"tested_on": "mice subjected to SCI", "experiment": "Mouse model of spinal cord ischemia (SCI): delayed paraplegia, hindlimb motor function by Basso mouse scale (BMS)", "assay_type": "in vivo", "source_text": "Adult C57BL/6J mice (12-18 weeks old) of both sexes were purchased from Jackson Laboratory (Bar Harbor, ME, USA). Both male and female mice were used in experiments to investigate the neuroprotective effect of GSSSG on motor function after SCI. […] All mice were housed in a temperature and humidity-controlled room in the animal center with a 12-hour light/dark cycle, and were provided with food and water ab libitum. To permit access by mice that were recovering from surgery, additional food pellets were inserted into hydrated gel placed on the bedding. A randomized paired design was used to minimize the variability between each treatment group. Mice were paired based on weight, age, delivery dates, and when possible, holding cages. After the pairing, mice were randomly assigned to different treatments.\nThe surgical procedures to produce delayed paraplegia in mice were performed as previously described^6 (FIG. 2A). Mice were anesthetized with 5% isoflurane in 100% O2 and tracheally intubated with a 20-gauge catheter (Angiocath; Becton Dickinson, Franklin Lakes, NJ, USA). […] The paravertebral muscle temperature was measured using a T-type implantable thermocouple probe (IT-18) and a T-type pod (ADInstruments, Colorado Springs, CO, USA). […] A median sternotomy extended from the apex of the manubrium to the second rib. The aortic arch was gently isolated between the left common carotid artery (LCCA) and the left subclavian artery (LSA), avoiding the vagus nerve and the left recurrent laryngeal nerve. […] After ischemia, the clips were removed in reverse order. Incisions were closed in layers and mechanical ventilation was discontinued. After stable spontaneous respiration was confirmed, mice were extubated.\nThe previously described surgical procedures^6 were modified as follows. The respiratory rate during the procedure was increased to 230 breaths/minute, because hyperventilation promotes the occurrence of delayed paraplegia caused by spinal cord ischemia^33. A laser Doppler perfusion monitor (moorVMS-LDF1; Moor Instruments, Millwey, UK) was used to monitor the femoral artery blood flow^28,29. […] To improve the accuracy of surgical procedures, a microscope (Leica MZ95; Leica Microsystems, Buffalo Grove, IL, USA) was used to isolate the aortic arch and place the clips.\nStudy drugs were administered intranasally using a single-channel pipettor. Mice were anesthetized with 3% isoflurane using a non-rebreathing circuit with a mouse nose cone (VetEquip, Inc., Livermore, CA, USA). While the drugs were administered, the nose cone was removed and mice were allowed to breathe air. Approximately 6 μL of each drug was administered into the mouse's nostrils and the mouse inhaled the droplets during inspiration. […]"}, "[3]": {"experiment": "LC-MS/MS of ^34S-labeled GSSSG and sulfane sulfur species in CNS and plasma after intranasal GS^34SSG", "assay_type": "in vivo, mouse", "protocol": "We used LC-MS/MS analysis to measure the amount of ^34S-labeled GSSSG ([^32S2, ^34S]GSSSG) in the CNS and plasma after intranasal administration of GS^34SSG, an isotope of endogenous GSSSG^9,35,36. The ratios of ^34S-labeled sulfane sulfur species ([^32S, ^34S]GSSH, [^32S, ^34S]cysteine hydropersulfide (CysSSH), and [^32S2, ^34S]cysteine trisulfide (CysSSSCys)) to endogenous sulfane sulfur species ([^32S2]GSSH, [^32S2]CysSSH, and […]) were also quantitatively evaluated. At 30 minutes after intranasal administration of 50 mg/kg of GS^34SSG, blood was obtained and four different central nervous tissues were harvested: olfactory bulb and forebrain; brainstem; cervical and thoracic spinal cord, and lumbar spinal cord. A total of 30 mg of each tissue was homogenized in 300 μl of ice-cold methanol solution containing 5 mM β-(4-hydroxyphenyl)ethyl iodoacetamide (HPE-IAM; Santa Cruz Biotechnology, Dallas, TX, USA). Twenty-five μl of plasma was mixed with 75 μl of ice-cold methanol solution containing 5 mM HPE-IAM. Samples were incubated for 20 minutes at 37° C. in the dark. After centrifugation (14,000×g for tissues, 1,870×g for plasma, 10 minutes, 4° C.), the supernatant was separated and diluted with 0.1% formic acid for LC-MS/MS analysis, and the pellet was sonicated to measure the protein concentration by BCA assay. The amount of [^32S2, ^34S]GSSSG was quantified in selective reaction monitoring (SRM) with precursor ion (647.14 m/z), product ion (389.1 m/z), and higher energy collisional dissociation (21 v). The ratios of [^32S, ^34S]GSSH to [^32S2]GSSH, [^32S, ^34S]CysSSH to [^32S2]CysSSH, and [^32S2, ^34S]CysSSSCys to [^32S3]CysSSSCys were calculated from their peak area measured by Dionex UltiMate 3000 RS UPLC-Orbitrap Exploris 480 mass spectrometer (Thermo Fisher Scientific, Waltham, MA, USA). In brief, samples were subjected to the UPLC system with a Hypersil Gold C-18 (100×2.1 mm, 3.0 μm, Thermo Fisher Scientific, Waltham, MA, USA) column and were then eluted by a linear methanol gradient of the mobile phase (0-90%, 15 minutes) in the presence of 0.1% formic acid at a flow rate of 0.2 ml/minute at 40° C. The raw data were analyzed by Compound Discoverer 3.3 software (Thermo Fisher Scientific, Waltham, MA, USA). The molecular weights of these sulfane sulfur species combined with HPE-IAM were determined based on previous reports^9,11,37."}, "[4]": {"tested_on": "murine primary cortical neurons", "experiment": "Cell viability of murine primary cortical neurons incubated with MPP+ (crystal violet assay)", "assay_type": "cell-based, mouse", "conditions": "MPP+ 50 μM, 24 hours", "protocol": "(§1) Cell viability assays was performed to examine cell viabilities of SH-SY5Y cells or murine primary cortical neurons 24 h after the addition of MPP^+ (5 mM for SH-SY5Y, 50 μM for primary cortical neurons) with vehicle (PBS), Na2S (Sigma-Aldrich), Na2S3 (Dojindo Molecular Technologies, Inc), GSSSG (Glutathione trisulfide, Kyowa Hakko Bio Co., Ltd., Tokyo, Japan), LA (α-Lipoic acid, Sigma-Aldrich) or LASSS (α-Lipoic acid trisulfide, Kyowa Hakko Bio Co., Ltd., Tokyo, Japan). Cell viability was measured using the crystal violet assay."}, "[5]": {"tested_on": "SH-SY5Y cells", "experiment": "Cell viability of SH-SY5Y cells incubated with MPP+ (crystal violet assay)", "assay_type": "cell-based, human", "conditions": "MPP+ 5 mM, 24 h", "protocol": "as §1"}, "[6]": {"tested_on": "primary cortical neurons", "experiment": "Relative sulfane sulfur levels in primary cortical neurons (SSip-1 DA)", "assay_type": "cell-based, mouse", "conditions": "incubation at 10 μM for 20 minutes; relative to untreated neurons", "protocol": "Primary cortical neurons were isolated from the cerebral cortices of C57BL/6J mice of both sexes at embryonic day 15, as previously described 39. Primary cortical neurons were maintained at 37° C. in a humidified tissue culture chamber with 5% CO2 and cells were used on day 11 after harvest.\n(§2) Primary cortical neurons or SH-SY5Y cells, a human neuroblastoma cell line (American Type Culture Collection, Manassas, VA, USA), were incubated with SSip-1 DA […] at 37° C. for 20 minutes in the dark. Cells were washed with pre-warmed HBSS containing calcium and magnesium (Thermo Fisher Scientific, Waltham, MA, USA) and then cells were incubated with GSSSG, sodium trisulfide (Na2S3; Dojindo Molecular Technologies, Inc., Rockville, MD, USA), PTN-SSS, or vehicle alone for 20 minutes at 37° C. in the dark. Fluorescence intensities were measured using a microplate reader."}, "[7]": {"experiment": "Water solubility of PTN-SSS", "assay_type": "physicochemical"}, "[8]": {"tested_on": "sulfane sulfur in olfactory bulb and forebrain, whole spinal cord", "experiment": "Relative sulfane sulfur levels in olfactory bulb and forebrain and whole spinal cord after intranasal PTN-SSS (SSip-1)", "assay_type": "in vivo, mouse", "conditions": "30 minutes after intranasal 50 mg/kg PTN-SSS; vs vehicle alone", "protocol": "At 30 minutes after intranasal administration of 50 mg/kg of PTN-SSS, the olfactory bulb and forebrain and the whole spinal cord were harvested. Tissues were homogenized in HBSS containing […] of SSip-1. The fluorescence intensities of supernatants were measured."}, "[9]": {"experiment": "Stability of PTN-SSS in solution", "assay_type": "physicochemical", "conditions": "pH 4.0-9.0 at room temperature"}, "[10]": {"tested_on": "SH-SY5Y cells", "experiment": "Relative sulfane sulfur levels in SH-SY5Y cells (SSip-1 DA)", "assay_type": "cell-based, human", "conditions": "PTN-SSS 10-50 μM; vs vehicle-only treated cells", "protocol": "as §2"}, "[11]": {"tested_on": "SH-SY5Y cells", "experiment": "Cell viability after OGD/R, SH-SY5Y cells", "assay_type": "cell-based, human", "protocol": "After reoxygenation, cell viability and cell injury were assessed using crystal violet and lactate dehydrogenase (LDH) assays, as previously described^39."}, "[12]": {"conditions": "30 minutes after intranasal 50 mg/kg GS^34SSG, mean ± SD"}},
  "data": [
    {"smiles": "N[C@@H](CCC(=O)N[C@@H](CS)C(=O)NCC(=O)O)C(=O)O", "note": "[GSH, glutathione, reference compound]", "values": [
      {"measurement": "cell viability after OGD/R, crystal violet assay (GSSSG, GSH, GSSG comparison)", "setting": "[1]", "result": "did not improve cell viability"},
      {"measurement": "mice in which development of delayed paraplegia was prevented", "setting": "[2]; male mice, n=11 per group, intranasal at 0, 8, 23, 32 hours after surgery, GSSSG 50 mg/kg, GSH 45.2 mg/kg", "result": 27, "unit": "%"}
    ]},
    {"smiles": "N[C@@H](CCC(=O)N[C@@H](CS[34S]SC[C@H](NC(=O)CC[C@H](N)C(=O)O)C(=O)NCC(=O)O)C(=O)NCC(=O)O)C(=O)O", "note": "[GS^34SSG]", "values": [
      {"measurement": "[^32S2, ^34S]GSSSG concentration in plasma", "setting": "[3]; [12]", "result": "25 ± 10", "unit": "nM"},
      {"measurement": "[^32S2, ^34S]GSSSG in brainstem", "setting": "[3]; [12]", "result": "226±101", "unit": "pmol/mg protein"},
      {"measurement": "[^32S2, ^34S]GSSSG in cervical and thoracic spinal cord", "setting": "[3]; [12]", "result": "414±98", "unit": "pmol/mg protein"},
      {"measurement": "[^32S2, ^34S]GSSSG in lumbar spinal cord", "setting": "[3]; [12]", "result": "317±111", "unit": "pmol/mg protein"},
      {"measurement": "[^32S2, ^34S]GSSSG in olfactory bulb and forebrain", "setting": "[3]; [12]", "result": "128±67", "unit": "pmol/mg protein"},
      {"measurement": "ratio of [^32S2, ^34S]CysSSSCys to [^32S3]CysSSSCys in brain and spinal cord", "setting": "[3]; [12]", "result": "31.8±9.8"},
      {"measurement": "ratio of [^32S, ^34S]GSSH to [^32S2]GSSH in brain and spinal cord", "setting": "[3]; [12]", "result": "6.5±2.8"},
      {"measurement": "concentration of ^34S-labeled GSSSG in the central nervous system", "setting": "[3]; 30 minutes after intranasal GS^34SSG, all CNS tissues", "result": "268±140", "unit": "pmol/mg protein"},
      {"measurement": "level of ^34S-labeled CysSSH in lumbar spinal cord", "setting": "[3]; after intranasal GS^34SSG, worked out from previously reported endogenous CysSSH level", "result": "~18", "unit": "pmol/mg protein"},
      {"measurement": "level of ^34S-labeled GSSH in lumbar spinal cord", "setting": "[3]; after intranasal GS^34SSG, worked out from previously reported endogenous GSSH level", "result": "approximately 1,600 pmol/mg protein"}
    ]},
    {"smiles": "O=C(O)CCCCC1CCSSS1", "note": "(centres unmarked) [LA-SSS, 1,2,3-trithiane-4-pentanoic acid]", "values": [
      {"measurement": "protection of murine primary cortical neurons from the effects of MPP+ treatment", "setting": "[4]", "result": "protected"}
    ]},
    {"smiles": "[Na+].[Na+].[S-]S[S-]", "note": "[Na2S3, sodium trisulfide, reference compound]", "values": [
      {"measurement": "viability of MPP+-treated SH-SY5Y cells", "setting": "[5]; 10 μM each", "result": "increased the viability"},
      {"measurement": "levels of intracellular sulfane sulfur in primary cortical neurons", "setting": "[6]", "result": "increased levels of intracellular sulfane sulfur"}
    ]},
    {"smiles": "[Na+].[Na+].[S-2]", "note": "[Na2S]", "values": [
      {"measurement": "viability of SH-SY5Y cells treated with MPP+", "setting": "[5]; Na2S doses between 1 and 100 μM", "result": "did not improve the viability"}
    ]},
    {"smiles": "CC(C)(CO)[C@@H](O)C(=O)NCCC(=O)NCCSSSCCNC(=O)CCNC(=O)[C@H](O)C(C)(C)CO", "note": "[PTN-SSS, pantethine trisulfide]", "values": [
      {"measurement": "water solubility", "setting": "[7]", "result": "> 50", "unit": "mg/mL"},
      {"measurement": "male mice rescued from delayed paraplegia", "setting": "[2]; PTN-SSS study, n=9 per group, intranasal PTN-SSS 50 mg/kg or PTN 47.3 mg/kg at 0, 8, 23, 32 hours after surgery", "result": 66, "unit": "%"},
      {"measurement": "sulfane sulfur levels in the olfactory bulb and forebrain and the whole spinal cord", "setting": "[8]", "result": "increased sulfane sulfur levels"},
      {"measurement": "stable in solution", "setting": "[9]", "result": "at least 4 days"},
      {"measurement": "sulfane sulfur levels in SH-SY5Y cells", "setting": "[10]", "result": "increased significantly"},
      {"measurement": "SH-SY5Y viability after OGD/R, crystal violet assay", "setting": "[11]; PTN-SSS at 10 μM, 25 μM, or 50 μM, vs vehicle-only treated cells", "result": "significantly improved"},
      {"measurement": "SH-SY5Y viability after OGD/R, crystal violet assay", "setting": "[11]; PTN-SSS at 100 μM", "result": "did not improve cell viability"}
    ]}
  ]
}
